# Earlier results in PMC11609630 (Cancer Discovery, 2024).
# System: patients with TNBC
substance,measurement,setting,value
sacituzumab govitecan: TROP2-targeting antibody–drug conjugate,gain in ORR compared with chemotherapy,cohort of relapsed patients with TNBC,30%
same,patients experiencing adverse events of grade 3 or higher,such as neutropenia and leukopenia,more than 50%
